In article PMC5418314, “First-in-human phase I study of SOR-C13, a TRPV6 calcium channel inhibitor, in patients with advanced solid tumors” (Investigational New Drugs, 2017):
Where two headings read alike, the source gives them in different places. Ends that are not written are not given here.

What was measured:
[1] = GLP toxicology study, daily IV bolus for 28 days, dog; type: in vivo, beagle dogs
Description: Anatomical pathology provided a No Observable Adverse Effect Level (NOAEL) of 200 mg/kg/day for rats. […] With results indicating antitumor activity in animal studies, a small toxicological footprint, a novel oncology target and a mechanism of action supported by the literature, SOR-C13 was formulated for intravenous injection (IV) for clinical evaluation. Here we present results of the ‘first-in-human’, Phase I clinical study evaluating SOR-C13 in adults with advanced solid tumors of epithelial origin refractory to all standard-of-care treatments.

[2] = tested on: voltage-gated potassium channels; assay: voltage-gated potassium channel activity; type: biochemical
[3] = Phase I plasma pharmacokinetics; type: in vivo, human; conditions: plasma LC-MS; for AUC(0-t) / Cmax / Tmax: plasma
Description: Blood samples were taken on Days 1, 3, 8 and 10 of Cycle 1 to assess the pharmacokinetic (PK) profile of SOR-C13 at the various doses used. Plasma samples for the IV 20 min infusion were taken at pre-infusion, 5, 15 min after the start of infusion and post-infusion at 2, 5, 10 and 30 min and 1, 4 h. Plasma samples for SOR-C13 analysis for the 90 min infusion were taken pre-infusion, at 5, 15 and 45 min after the start of infusion, and at 2, 5, 10 and 30 min post-infusion. Since the infusion for the majority of patients, and further studies will be IV 90 min only PK data for this infusion time are presented. Validated liquid chromatography-mass spectrometry analysis provided the plasma concentration/time data.

[4] = Cohort 3: 1.375 mg/kg, N = 3, 90-min IV infusion, Cycle 1 Day 8

With KEFLHPSKVDLPR [SOR-C13] the antigenicity [1] was “no antigenicity”, the cardiovascular toxicity [1] was “no cardiovascular toxicity” and the toxicity [1] was “minimal toxicity”. The “modulation of channel activity” value [2] was “no modulation of channel activity”, the “time after start of infusion by which steady state was achieved” value ([3]; 90-min infusion) was at most 15 min and the “Peak plasma concentration, Median” value ([3]; Cohort 3: 1.375 mg/kg, N = 3, 90-min IV infusion, Cycle 1 Day 1) was 252.50 ng/mL. The “Peak plasma concentration, Mean (SD)” value [3, 4] was 251.03 (75.53) ng/mL, the “Time to peak plasma concentration, Median” value (shortened to “Time … Median”) [3, 4] was 0.750 h and the “Time … Median” value ([3]; Cohort 4: 2.75 mg/kg, N = 6, 90-min IV infusion, Cycle 1 Day 3) was 0.750 h. For the same sequence, the “Time … Median” value ([3]; Cohort 5: 4.13 mg/kg, N = 3, 90-min IV infusion, Cycle 1 Day 10) was 0.250 h, the “Time … Median” value ([3]; Cohort 6: 6.2 mg/kg, N = 6, 90-min IV infusion, Cycle 1 Day 8) was 0.750 h and the half-life ([3]; human, iv, patients, 90-min infusion, read-out: elimination half-life (Thalf), estimated overall) was under 5 min. For the same sequence, the AUC(0-t) ([3]; human, iv, 1.375 mg/kg, Cohort 3: 1.375 mg/kg, N = 3, 90-min IV infusion, Cycle 1 Day 1, read-out: AUCtau, Mean (SD)) was 256 ng·h/mL, the AUC(0-t) ([3]; human, iv, 1.375 mg/kg, Cohort 3: 1.375 mg/kg, N = 3, 90-min IV infusion, Cycle 1 Day 1, read-out: AUCtau, Median) was 263 ng·h/mL and the Cmax ([3]; human, iv, 1.375 mg/kg, Cohort 3: 1.375 mg/kg, N = 3, 90-min IV infusion, Cycle 1 Day 1, read-out: Peak plasma concentration, Mean (SD)) was 244 ng/mL. The Tmax ([3]; human, iv, 1.375 mg/kg, Cohort 3: 1.375 mg/kg, N = 3, 90-min IV infusion, Cycle 1 Day 1, read-out: Time to peak plasma concentration, Mean (SD)) was 31.6 min, the Tmax ([3]; human, iv, 1.375 mg/kg, Cohort 3: 1.375 mg/kg, N = 3, 90-min IV infusion, Cycle 1 Day 1, read-out: Time to peak plasma concentration, Median) was 45 min and the AUC(0-t) ([3]; human, iv, 1.375 mg/kg, Cohort 3: 1.375 mg/kg, N = 3, 90-min IV infusion, Cycle 1 Day 3, read-out: AUCtau, Mean (SD)) was 148 ng·h/mL. The AUC(0-t) ([3]; human, iv, 1.375 mg/kg, Cohort 3: 1.375 mg/kg, N = 3, 90-min IV infusion, Cycle 1 Day 3, read-out: AUCtau, Median) was 168 ng·h/mL, the Cmax ([3]; human, iv, 1.375 mg/kg, Cohort 3: 1.375 mg/kg, N = 3, 90-min IV infusion, Cycle 1 Day 3, read-out: Peak plasma concentration, Mean (SD)) was 193 ng/mL and the Cmax ([3]; human, iv, 1.375 mg/kg, Cohort 3: 1.375 mg/kg, N = 3, 90-min IV infusion, Cycle 1 Day 3, read-out: Peak plasma concentration, Median) was 160 ng/mL. It also gave a Tmax ([3]; human, iv, 1.375 mg/kg, Cohort 3: 1.375 mg/kg, N = 3, 90-min IV infusion, Cycle 1 Day 3, read-out: Time to peak plasma concentration, Mean (SD)) of 11.6 min, a Tmax ([3]; human, iv, 1.375 mg/kg, Cohort 3: 1.375 mg/kg, N = 3, 90-min IV infusion, Cycle 1 Day 3, read-out: Time to peak plasma concentration, Median) of 15 min and an AUC(0-t) ([3]; human, iv, 1.375 mg/kg, Cohort 3: 1.375 mg/kg, N = 3, 90-min IV infusion, Cycle 1 Day 8, read-out: AUCtau, Mean (SD)) of 220 ng·h/mL. For the same sequence, the AUC(0-t) ([3]; human, iv, 1.375 mg/kg, Cohort 3: 1.375 mg/kg, N = 3, 90-min IV infusion, Cycle 1 Day 8, read-out: AUCtau, Median) was 230 ng·h/mL, the Cmax ([3]; human, iv, 1.375 mg/kg, Cohort 3: 1.375 mg/kg, N = 3, 90-min IV infusion, Cycle 1 Day 8, read-out: Peak plasma concentration, Median) was 237 ng/mL and the Tmax ([3]; human, iv, 1.375 mg/kg, Cohort 3: 1.375 mg/kg, N = 3, 90-min IV infusion, Cycle 1 Day 8, read-out: Time to peak plasma concentration, Mean (SD)) was 47.2 min. For the same sequence, the AUC(0-t) ([3]; human, iv, 1.375 mg/kg, Cohort 3: 1.375 mg/kg, N = 3, 90-min IV infusion, Cycle 1 Day 10, read-out: AUCtau, Mean (SD)) was 184 ng·h/mL, the AUC(0-t) ([3]; human, iv, 1.375 mg/kg, Cohort 3: 1.375 mg/kg, N = 3, 90-min IV infusion, Cycle 1 Day 10, read-out: AUCtau, Median) was 215 ng·h/mL and the Cmax ([3]; human, iv, 1.375 mg/kg, Cohort 3: 1.375 mg/kg, N = 3, 90-min IV infusion, Cycle 1 Day 10, read-out: Peak plasma concentration, Mean (SD)) was 224 ng/mL. The Cmax ([3]; human, iv, 1.375 mg/kg, Cohort 3: 1.375 mg/kg, N = 3, 90-min IV infusion, Cycle 1 Day 10, read-out: Peak plasma concentration, Median) was 181 ng/mL, the Tmax ([3]; human, iv, 1.375 mg/kg, Cohort 3: 1.375 mg/kg, N = 3, 90-min IV infusion, Cycle 1 Day 10, read-out: Time to peak plasma concentration, Mean (SD)) was 35 min and the AUC(0-t) ([3]; human, iv, 2.75 mg/kg, Cohort 4: 2.75 mg/kg, N = 6, 90-min IV infusion, Cycle 1 Day 1, read-out: AUCtau, Mean (SD)) was 435 ng·h/mL. The AUC(0-t) ([3]; human, iv, 2.75 mg/kg, Cohort 4: 2.75 mg/kg, N = 6, 90-min IV infusion, Cycle 1 Day 1, read-out: AUCtau, Median) was 103 ng·h/mL, the Cmax ([3]; human, iv, 2.75 mg/kg, Cohort 4: 2.75 mg/kg, N = 6, 90-min IV infusion, Cycle 1 Day 1, read-out: Peak plasma concentration, Mean (SD)) was 524 ng/mL and the Cmax ([3]; human, iv, 2.75 mg/kg, Cohort 4: 2.75 mg/kg, N = 6, 90-min IV infusion, Cycle 1 Day 1, read-out: Peak plasma concentration, Median) was 194 ng/mL. It also gave a Tmax ([3]; human, iv, 2.75 mg/kg, Cohort 4: 2.75 mg/kg, N = 6, 90-min IV infusion, Cycle 1 Day 1, read-out: Time to peak plasma concentration, Mean (SD)) of 39.9 min, a Tmax ([3]; human, iv, 2.75 mg/kg, Cohort 4: 2.75 mg/kg, N = 6, 90-min IV infusion, Cycle 1 Day 1, read-out: Time to peak plasma concentration, Median) of 45 min and an AUC(0-t) ([3]; human, iv, 2.75 mg/kg, Cohort 4: 2.75 mg/kg, N = 6, 90-min IV infusion, Cycle 1 Day 3, read-out: AUCtau, Mean (SD)) of 365 ng·h/mL. It also gave an AUC(0-t) ([3]; human, iv, 2.75 mg/kg, Cohort 4: 2.75 mg/kg, N = 6, 90-min IV infusion, Cycle 1 Day 3, read-out: AUCtau, Median) of 250 ng·h/mL, a Cmax ([3]; human, iv, 2.75 mg/kg, Cohort 4: 2.75 mg/kg, N = 6, 90-min IV infusion, Cycle 1 Day 3, read-out: Peak plasma concentration, Mean (SD)) of 374 ng/mL and a Cmax ([3]; human, iv, 2.75 mg/kg, Cohort 4: 2.75 mg/kg, N = 6, 90-min IV infusion, Cycle 1 Day 3, read-out: Peak plasma concentration, Median) of 265 ng/mL. The Tmax ([3]; human, iv, 2.75 mg/kg, Cohort 4: 2.75 mg/kg, N = 6, 90-min IV infusion, Cycle 1 Day 3, read-out: Time to peak plasma concentration, Mean (SD)) was 40.3 min, the AUC(0-t) ([3]; human, iv, 2.75 mg/kg, Cohort 4: 2.75 mg/kg, N = 6, 90-min IV infusion, Cycle 1 Day 8, read-out: AUCtau, Mean (SD)) was 215 ng·h/mL and the AUC(0-t) ([3]; human, iv, 2.75 mg/kg, Cohort 4: 2.75 mg/kg, N = 6, 90-min IV infusion, Cycle 1 Day 8, read-out: AUCtau, Median) was 247 ng·h/mL. The Cmax ([3]; human, iv, 2.75 mg/kg, Cohort 4: 2.75 mg/kg, N = 6, 90-min IV infusion, Cycle 1 Day 8, read-out: Peak plasma concentration, Mean (SD)) was 239 ng/mL, the Cmax ([3]; human, iv, 2.75 mg/kg, Cohort 4: 2.75 mg/kg, N = 6, 90-min IV infusion, Cycle 1 Day 8, read-out: Peak plasma concentration, Median) was 282 ng/mL and the Tmax ([3]; human, iv, 2.75 mg/kg, Cohort 4: 2.75 mg/kg, N = 6, 90-min IV infusion, Cycle 1 Day 8, read-out: Time to peak plasma concentration, Mean (SD)) was 21.6 min. For the same sequence, the Tmax ([3]; human, iv, 2.75 mg/kg, Cohort 4: 2.75 mg/kg, N = 6, 90-min IV infusion, Cycle 1 Day 8, read-out: Time to peak plasma concentration, Median) was 15 min, the AUC(0-t) ([3]; human, iv, 2.75 mg/kg, Cohort 4: 2.75 mg/kg, N = 6, 90-min IV infusion, Cycle 1 Day 10, read-out: AUCtau, Mean (SD)) was 274 ng·h/mL and the AUC(0-t) ([3]; human, iv, 2.75 mg/kg, Cohort 4: 2.75 mg/kg, N = 6, 90-min IV infusion, Cycle 1 Day 10, read-out: AUCtau, Median) was 192 ng·h/mL. For the same sequence, the Cmax ([3]; human, iv, 2.75 mg/kg, Cohort 4: 2.75 mg/kg, N = 6, 90-min IV infusion, Cycle 1 Day 10, read-out: Peak plasma concentration, Mean (SD)) was 290 ng/mL, the Cmax ([3]; human, iv, 2.75 mg/kg, Cohort 4: 2.75 mg/kg, N = 6, 90-min IV infusion, Cycle 1 Day 10, read-out: Peak plasma concentration, Median) was 232 ng/mL and the Tmax ([3]; human, iv, 2.75 mg/kg, Cohort 4: 2.75 mg/kg, N = 6, 90-min IV infusion, Cycle 1 Day 10, read-out: Time to peak plasma concentration, Mean (SD)) was 36.6 min.
